# Test results reported in patent publication US7781591B2, “Substituted 3-cyanopyridines as protein kinase inhibitors” (Wyeth LLC, priority 2006, dated 2010).
# Molecular target: T1, human PKCθ full length enzyme (Homo sapiens, UniProt Q04759)
# T1 construct: human PKCθ full length enzyme (Panvera Cat# P2996); purchased Panvera P2996
# Experiment: PKCθ IMAP assay (fluorescence polarization)
# Type: biochemical
# Conditions: human PKCθ full length enzyme, IMAP; average value; read-out: IC50 PKCθ IMAP
# T1 sequence (Q04759 whole entry): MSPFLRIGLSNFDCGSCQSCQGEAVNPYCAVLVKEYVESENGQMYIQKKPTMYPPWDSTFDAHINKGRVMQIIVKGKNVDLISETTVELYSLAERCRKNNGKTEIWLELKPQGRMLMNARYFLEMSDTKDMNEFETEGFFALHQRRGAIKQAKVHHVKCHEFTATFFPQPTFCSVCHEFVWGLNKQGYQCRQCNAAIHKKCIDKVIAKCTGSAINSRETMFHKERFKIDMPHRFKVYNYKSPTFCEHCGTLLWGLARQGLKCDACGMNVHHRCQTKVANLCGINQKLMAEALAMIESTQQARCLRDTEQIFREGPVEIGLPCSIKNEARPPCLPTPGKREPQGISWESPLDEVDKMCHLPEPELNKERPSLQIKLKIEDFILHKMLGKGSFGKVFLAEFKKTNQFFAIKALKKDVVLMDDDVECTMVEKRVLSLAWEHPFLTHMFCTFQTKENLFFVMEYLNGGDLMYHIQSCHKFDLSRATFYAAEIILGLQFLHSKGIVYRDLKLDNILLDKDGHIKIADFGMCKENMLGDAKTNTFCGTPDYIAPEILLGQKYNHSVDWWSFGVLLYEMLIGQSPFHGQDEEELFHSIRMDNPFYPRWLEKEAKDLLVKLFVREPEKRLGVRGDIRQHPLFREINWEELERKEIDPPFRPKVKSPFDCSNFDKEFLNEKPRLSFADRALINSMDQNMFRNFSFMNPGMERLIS
row,Molecule,IC50
1,"Cc1c(Nc2c(C#N)cncc2-c2cc3cc(CNCc4ccccn4)ccc3o2)ccc2[nH]ccc12 [Compound 398, 4-[(4-methyl-1H-indol-5-yl)amino]-5-(5-{[(pyridin-2-ylmethyl)amino]methyl}-1-benzofuran-2-yl)nicotinonitrile]",3 nM
2,"COCCNCCOc1cc(-c2cncc(C#N)c2Nc2ccc3[nH]ccc3c2)ccc1OC [Compound 182, 4-(1H-indol-5-ylamino)-5-(4-methoxy-3-{2-[(2-methoxyethyl)amino]ethoxy}phenyl)nicotinonitrile]",120 nM
3,5-(1-benzofuran-3-yl)-4-(1H-indol-4-ylamino)nicotinonitrile [Compound 352],20 nM
4,"Cc1c(Nc2c(C#N)cncc2-c2cc3cc(C=O)ccc3s2)ccc2[nH]ccc12 [Compound 227, 5-(5-formyl-1-benzothien-2-yl)-4-[(4-methyl-1H-indol-5-yl)amino]nicotinonitrile]",1 nM
5,"Cc1c(Nc2c(C#N)cncc2-c2ccc3cc[nH]c3c2)ccc2[nH]ccc12 [Compound 588, 5-(1H-indol-6-yl)-4-[(4-methyl-1H-indol-5-yl)amino]nicotinonitrile]",57 nM
6,"Cc1c(Nc2c(C#N)cncc2-c2cc3cc(CNCc4cccnc4)ccc3o2)ccc2[nH]ccc12 [Compound 399, 4-[(4-methyl-1H-indol-5-yl)amino]-5-(5-{[(pyridin-3-ylmethyl)amino]methyl}-1-benzofuran-2-yl)nicotinonitrile]",2 nM
7,"Cc1c(Nc2c(C#N)cncc2-c2cccc3ncccc23)ccc2[nH]ccc12 [Compound 592, 4-(4-methyl-1H-indol-5-ylamino)-5-(quinolin-5-yl)nicotinonitrile]",6.9 nM
8,"Cc1c(Nc2c(C#N)cncc2-c2ccc(CN3CCCC3)cc2)ccc2[nH]ccc12 [Compound 450, 4-[(4-methyl-1H-indol-5-yl)amino]-5-[4-(pyrrolidin-1-ylmethyl)phenyl]nicotinonitrile]",16 nM
9,4-(1H-indol-4-ylamino)-5-(4-methoxy-3-{2-[(3-pyrrolidin-1-ylpropyl)amino]ethoxy}phenyl)nicotinonitrile [Compound 340],8 nM
10,"COc1ccc(-c2cncc(C#N)c2Nc2ccc3[nH]ccc3c2)cc1OCCN1CCN(C)CC1 [Compound 231, 4-(1H-indol-5-ylamino)-5-{4-methoxy-3-[2-(4-methylpiperazin-1-yl)ethoxy]phenyl}nicotinonitrile]",250 nM
11,"Cc1c(Nc2c(C#N)cncc2-c2ccc(CN3CCCCC3)o2)ccc2[nH]ccc12 [Compound 402, 4-[(4-methyl-1H-indol-5-yl)amino]-5-[5-(piperidin-1-ylmethyl)-2-furyl]nicotinonitrile]",41 nM
12,"Cc1c(Nc2c(C#N)cncc2-c2cc3cc(CN4CCOCC4)ccc3o2)ccc2[nH]ccc12 [Compound 388, 4-[(4-methyl-1H-indol-5-yl)amino]-5-[5-(morpholin-4-ylmethyl)-1-benzofuran-2-yl]nicotinonitrile]",13 nM
13,"Cc1cc2[nH]ccc2cc1Nc1c(C#N)cncc1-c1cc2cc(CN3CCN(C)CC3)ccc2o1 [Compound 497, 4-[(6-methyl-1H-indol-5-yl)amino]-5-{5-[(4-methylpiperazin-1-yl)methyl]-1-benzofuran-2-yl}nicotinonitrile]",7 nM
14,"Cc1c(Nc2c(C#N)cncc2-c2ccc(CN3CCN(C(C)C)CC3)o2)ccc2[nH]ccc12 [Compound 437, 5-{5-[(4-isopropylpiperazin-1-yl)methyl]-2-furyl}-4-[(4-methyl-1H-indol-5-yl)amino]nicotinonitrile]",2 nM
15,"N#Cc1cncc(-c2ccc(OCCN3CCOCC3)cc2)c1Nc1cccc2[nH]ccc12 [Compound 334, 4-(1H-indol-4-ylamino)-5-[4-(2-morpholin-4-ylethoxy)phenyl]nicotinonitrile]",30 nM
16,"N#Cc1cncc(-c2cc3cc(CN4CCC(CO)CC4)ccc3s2)c1Nc1cccc2[nH]ccc12 [Compound 284, 5-(5-{[4-(hydroxymethyl)piperidin-1-yl]methyl}-1-benzothien-2-yl)-4-(1H-indol-4-ylamino)nicotinonitrile]",4 nM
17,"Cc1c(Nc2c(C#N)cncc2-c2ccc(N(C)C)cc2)ccc2[nH]ccc12 [Compound 574, 5-[4-(dimethylamino)phenyl]-4-[(4-methyl-1H-indol-5-yl)amino]nicotinonitrile]",15 nM
18,"Cc1c(Nc2c(C#N)cncc2-c2ccc(OCCNCc3ccncc3)cc2)ccc2[nH]ccc12 [Compound 434, 4-[(4-methyl-1H-indol-5-yl)amino]-5-(4-{2-[(pyridin-4-ylmethyl)amino]ethoxy}phenyl)nicotinonitrile]",14 nM
19,"COc1ccc(-c2cncc(C#N)c2Nc2ccc3[nH]ccc3c2)cc1OCCNC1CCCCC1 [Compound 244, 5-{3-[2-(cyclohexylamino)ethoxy]-4-methoxyphenyl}-4-(1H-indol-5-ylamino)nicotinonitrile]",170 nM
20,"Cc1c(Nc2c(C#N)cncc2-c2ccc(OCCNCCCc3ccccc3)cc2)ccc2[nH]ccc12 [Compound 355, 4-[(4-methyl-1H-indol-5-yl)amino]-5-(4-{2-[(3-phenylpropyl)amino]ethoxy}phenyl)nicotinonitrile]",3 nM

row,Molecule,IC50
1,"N#Cc1cncc(-c2cccc(-c3ccc(CN4CCCCC4)s3)c2)c1Nc1ccc2[nH]ccc2c1 [Compound 186, 4-(1H-indol-5-ylamino)-5-{3-[5-(piperidin-1-ylmethyl)-2-thienyl]phenyl}nicotinonitrile]",140 nM
2,"Cc1c(Nc2c(C#N)cncc2-c2cccc(OCCCCCl)c2)ccc2[nH]ccc12 [Compound 501, 5-[3-(4-chlorobutoxy)phenyl]-4-[(4-methyl-1H-indol-5-yl)amino]nicotinonitrile]",89 nM
3,"Cc1c(Nc2c(C#N)cncc2-c2ccc(NC(=O)N(C)C)cc2)ccc2[nH]ccc12 [Compound 568, 3-(4-{5-cyano-4-[(4-methyl-1H-indol-5-yl)amino]pyridin-3-yl}phenyl)-1,1-dimethylurea]",56 nM
4,"COCCCNCc1ccc2sc(-c3cncc(C#N)c3Nc3cccc4[nH]ccc34)cc2c1 [Compound 276, 4-(1H-indol-4-ylamino)-5-(5-{[(3-methoxypropyl)amino]methyl}-1-benzothien-2-yl)nicotinonitrile]",2 nM
5,"COc1ccc(-c2cncc(C#N)c2Nc2ccc3[nH]ccc3c2)cc1OCCCl [Compound 178, 5-[3-(2-chloroethoxy)-4-methoxyphenyl]-4-(1H-indol-5-ylamino)nicotinonitrile]",110 nM
6,"Cc1c(Nc2c(C#N)cncc2-c2ccc(OCCN(C)C)cc2)cc(Cl)c2[nH]ccc12 [Compound 534, 4-[(7-chloro-4-methyl-1H-indol-5-yl)amino]-5-{4-[2-(dimethylamino)ethoxy]phenyl}nicotinonitrile]",17 nM
7,"COc1ccc(-c2cncc(C#N)c2Nc2cnc3[nH]ccc3c2)cc1OC [Compound 488, 5-(3,4-dimethoxyphenyl)-4-(1H-pyrrolo[2,3-b]pyridin-5-ylamino)nicotinonitrile]",2020 nM
8,"N#Cc1cncc(-c2cccc(-c3ccc(C(=O)NC4CCCC4)cc3)c2)c1Nc1ccc2[nH]ccc2c1 [Compound 123, 3′-[5-cyano-4-(1H-indol-5-ylamino)pyridin-3-yl]-N-cyclopentylbiphenyl-4-carboxamide]",180 nM
9,"COc1ccc(-c2cncc(C#N)c2Nc2cccc3[nH]ccc23)cc1OCCN1CCN(C)CC1 [Compound 300, 4-(1H-indol-4-ylamino)-5-{4-methoxy-3-[2-(4-methylpiperazin-1-yl)ethoxy]phenyl}nicotinonitrile]",20 nM
10,"CN(C)Cc1cccc(-c2cncc(C#N)c2Nc2cccc3[nH]ccc23)c1 [Compound 271, 5-{3-[(dimethylamino)methyl]phenyl}-4-(1H-indol-4-ylamino)nicotinonitrile]",100 nM
11,"COc1ccc(-c2cncc(C#N)c2Nc2ccc3ccccc3c2)cc1OC [Compound 112, 5-(3,4-dimethoxyphenyl)-4-(2-naphthylamino)nicotinonitrile]",1130 nM
12,"CN1CCN(CCOc2cccc(-c3cncc(C#N)c3Nc3cccc4[nH]ccc34)c2)CC1 [Compound 168, 4-(1H-indol-4-ylamino)-5-{3-[2-(4-methylpiperazin-1-yl)ethoxy]phenyl}nicotinonitrile]",20 nM
13,"Cc1c(Nc2c(C#N)cncc2-c2cccc(CN(C)C)c2)ccc2[nH]ccc12 [Compound 457, 5-{3-[(dimethylamino)methyl]phenyl}-4-[(4-methyl-1H-indol-5-yl)amino]nicotinonitrile]",7 nM
14,"Cc1c(Nc2c(C#N)cncc2-c2ccc(CN3CCS(=O)(=O)CC3)o2)ccc2[nH]ccc12 [Compound 487, 5-{5-[(1,1-dioxidothiomorpholin-4-yl)methyl]-2-furyl}-4-[(4-methyl-1H-indol-5-yl)amino]nicotinonitrile]",16 nM
15,"COc1ccc(-c2cncc(C#N)c2Nc2ccc3[nH]ccc3c2)cc1OCCN1CCNCC1 [Compound 232, 4-(1H-indol-5-ylamino)-5-[4-methoxy-3-(2-piperazin-1-ylethoxy)phenyl]nicotinonitrile]",200 nM
16,"N#Cc1cncc(-c2cccc(Br)c2)c1Nc1cccc2[nH]ccc12 [Compound 114, 5-(3-bromophenyl)-4-(1H-indol-4-ylamino)nicotinonitrile]",2 nM
17,"COc1ccc(-c2cncc(C#N)c2NC[C@H]2CC[C@H](CN)CC2)cc1OC [Compound 441, 4-({[trans-4-(aminomethyl)cyclohexyl]methyl}amino)-5-(3,4-dimethoxyphenyl)nicotinonitrile]",529 nM
18,"N#Cc1cncc(-c2cccs2)c1Nc1ccc2[nH]ccc2c1 [Compound 267, 4-(1H-indol-5-ylamino)-5-(2-thienyl)nicotinonitrile]",100 nM
19,"CNC(=O)c1ccc(-c2cccc(-c3cncc(C#N)c3Nc3ccc4[nH]ccc4c3)c2)cc1 [Compound 196, 3′-[5-cyano-4-(1H-indol-5-ylamino)pyridin-3-yl]-N-methylbiphenyl-4-carboxamide]",460 nM
20,"COc1ccc(-c2cncc(C#N)c2NCCN2CCN(C)CC2)cc1OC [Compound 439, 5-(3,4-dimethoxyphenyl)-4-{[2-(4-methylpiperazin-1-yl)ethyl]amino}nicotinonitrile]",5850 nM
